The target of series [1] is T1, Cytochrome P450 4Z1 (Homo sapiens, UniProt Q86W10).
T1 sequence (Q86W10 whole entry): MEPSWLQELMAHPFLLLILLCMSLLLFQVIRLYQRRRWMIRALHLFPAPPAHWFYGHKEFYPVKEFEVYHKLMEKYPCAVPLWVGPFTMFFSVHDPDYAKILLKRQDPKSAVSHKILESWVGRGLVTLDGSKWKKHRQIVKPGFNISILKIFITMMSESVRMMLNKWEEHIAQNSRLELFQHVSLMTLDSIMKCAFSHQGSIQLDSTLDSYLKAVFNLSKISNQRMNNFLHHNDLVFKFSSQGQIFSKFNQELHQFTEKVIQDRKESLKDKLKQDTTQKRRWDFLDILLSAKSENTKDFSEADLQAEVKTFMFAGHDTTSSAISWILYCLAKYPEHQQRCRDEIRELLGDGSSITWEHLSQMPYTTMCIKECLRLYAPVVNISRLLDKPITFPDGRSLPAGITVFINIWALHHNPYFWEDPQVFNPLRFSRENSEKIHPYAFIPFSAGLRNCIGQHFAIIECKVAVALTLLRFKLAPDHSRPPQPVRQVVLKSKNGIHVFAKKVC
The series can be described thus: Inhibition of human CYP4Z1 expressed in permeabilized fission AZ3 yeast cells at 100 nM using luciferin-3FBE as substrate incubated for 3 hrs by luminescence based enzyme bag assay relative to control. Type of series: cell-based.

Series [2] has as its target T1, Cytochrome P450 4Z1. Kind of series: Inhibition of human CYP4Z1 overexpressed in human MCF7 cells at 1 uM using luciferin-3FBE as substrate incubated for 24 hrs followed by substrate addition by luminescence based assay relative to control. Type of series: cell-based.
Series [3] concerns the target T1, Cytochrome P450 4Z1. The series can be described thus: Inhibition of human CYP4Z1 overexpressed in human MCF7 cells using luciferin-3FBE as substrate incubated for 24 hrs followed by substrate addition by luminescence based assay. It is filed as cell-based.
For the next series, the target named is T2, CYP1A2 (Homo sapiens, UniProt P05177).
T2 sequence (P05177 whole entry): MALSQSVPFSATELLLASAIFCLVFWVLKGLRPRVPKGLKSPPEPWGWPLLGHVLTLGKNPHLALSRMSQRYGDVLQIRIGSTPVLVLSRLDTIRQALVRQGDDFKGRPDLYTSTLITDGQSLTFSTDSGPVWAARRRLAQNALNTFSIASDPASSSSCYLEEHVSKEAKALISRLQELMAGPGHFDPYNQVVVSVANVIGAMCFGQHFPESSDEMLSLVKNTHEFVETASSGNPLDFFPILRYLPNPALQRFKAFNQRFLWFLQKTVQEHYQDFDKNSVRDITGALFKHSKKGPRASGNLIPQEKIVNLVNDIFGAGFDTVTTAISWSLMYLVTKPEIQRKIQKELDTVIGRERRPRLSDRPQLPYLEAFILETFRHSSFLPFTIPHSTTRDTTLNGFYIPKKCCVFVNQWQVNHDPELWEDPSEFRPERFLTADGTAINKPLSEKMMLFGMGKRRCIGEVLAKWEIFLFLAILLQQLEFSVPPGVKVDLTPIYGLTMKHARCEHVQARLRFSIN
The series can be described thus: Inhibition of human CYP1A2 at 1 uM using luciferin-ME as substrate by enzyme bag based one point inhibition assay relative to control. It is filed as ADME. To be noted: enzyme bags, probe luciferin-ME.

A further series has as its target CYP2C9 (Homo sapiens, UniProt P11712). Kind of series: Inhibition of human CYP2C9 at 1 uM using luciferin-H as substrate by enzyme bag based one point inhibition assay relative to control. It is filed as ADME. To be noted: enzyme bags, probe luciferin-H.
A further series concerns the target CYP2C19 (Homo sapiens, UniProt P33261). The series can be described thus: Inhibition of human CYP2C19 at 1 uM using luciferin-HEGE as substrate by enzyme bag based one point inhibition assay relative to control. Type of series: ADME. Conditions: enzyme bags, probe luciferin-HEGE.
In another series the target is CYP2D6 (Homo sapiens, UniProt P10635). The series can be described thus: Inhibition of human CYP2D6 at 1 uM using luciferin-MEEGE as substrate by enzyme bag based one point inhibition assay relative to control. It is filed as ADME. Conditions: enzyme bags, probe luciferin-MEEGE.
A further series has as its target CYP2E1 (Homo sapiens, UniProt P05181). Kind of series: Inhibition of human CYP2E1 at 1 uM using luciferin-ME as substrate by enzyme bag based one point inhibition assay relative to control. It is filed as ADME. Conditions: enzyme bags, probe luciferin-ME.
The next series addresses CYP3A4 (Homo sapiens, UniProt P08684). The series can be described thus: Inhibition of human CYP3A4 at 1 uM using luciferin-BE as substrate by enzyme bag based one point inhibition assay relative to control. Type of series: ADME. To be noted: enzyme bags, probe luciferin-BE.
Series [4] has as its target T1, Cytochrome P450 4Z1. The series can be described thus: Inhibition of human CYP4Z1 overexpressed in human MCF7 cells using luciferin-BE as substrate incubated for 24 hrs followed by substrate addition by luminescence based assay. Type of series: cell-based.

Chain of CYP2C9 (P11712 whole entry): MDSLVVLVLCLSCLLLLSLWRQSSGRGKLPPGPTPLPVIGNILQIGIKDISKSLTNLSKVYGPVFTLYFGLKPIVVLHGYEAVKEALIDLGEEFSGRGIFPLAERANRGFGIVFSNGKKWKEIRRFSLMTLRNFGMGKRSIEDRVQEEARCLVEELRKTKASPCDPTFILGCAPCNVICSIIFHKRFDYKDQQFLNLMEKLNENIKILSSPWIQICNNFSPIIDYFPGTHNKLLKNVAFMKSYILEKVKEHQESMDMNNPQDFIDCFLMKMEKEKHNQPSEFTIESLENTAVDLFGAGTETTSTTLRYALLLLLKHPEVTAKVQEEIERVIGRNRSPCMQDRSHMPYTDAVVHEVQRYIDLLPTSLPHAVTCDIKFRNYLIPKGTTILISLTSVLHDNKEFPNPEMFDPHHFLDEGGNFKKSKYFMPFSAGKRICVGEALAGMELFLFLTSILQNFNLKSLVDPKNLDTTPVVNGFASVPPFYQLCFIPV
Chain of CYP2C19 (P33261 whole entry): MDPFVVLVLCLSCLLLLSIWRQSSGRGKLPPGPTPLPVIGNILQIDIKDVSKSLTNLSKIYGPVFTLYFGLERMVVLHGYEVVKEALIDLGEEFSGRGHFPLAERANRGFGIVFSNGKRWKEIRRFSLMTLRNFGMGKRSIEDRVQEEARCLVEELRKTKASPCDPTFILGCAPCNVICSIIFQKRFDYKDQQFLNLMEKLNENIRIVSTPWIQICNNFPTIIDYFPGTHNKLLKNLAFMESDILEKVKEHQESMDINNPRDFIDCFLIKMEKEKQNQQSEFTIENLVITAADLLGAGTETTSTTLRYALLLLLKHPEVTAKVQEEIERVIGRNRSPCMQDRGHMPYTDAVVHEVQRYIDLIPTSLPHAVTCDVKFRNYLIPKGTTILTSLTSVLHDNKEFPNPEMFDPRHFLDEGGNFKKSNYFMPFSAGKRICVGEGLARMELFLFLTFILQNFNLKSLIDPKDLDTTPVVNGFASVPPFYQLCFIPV
Chain of CYP3A4 (P08684 whole entry): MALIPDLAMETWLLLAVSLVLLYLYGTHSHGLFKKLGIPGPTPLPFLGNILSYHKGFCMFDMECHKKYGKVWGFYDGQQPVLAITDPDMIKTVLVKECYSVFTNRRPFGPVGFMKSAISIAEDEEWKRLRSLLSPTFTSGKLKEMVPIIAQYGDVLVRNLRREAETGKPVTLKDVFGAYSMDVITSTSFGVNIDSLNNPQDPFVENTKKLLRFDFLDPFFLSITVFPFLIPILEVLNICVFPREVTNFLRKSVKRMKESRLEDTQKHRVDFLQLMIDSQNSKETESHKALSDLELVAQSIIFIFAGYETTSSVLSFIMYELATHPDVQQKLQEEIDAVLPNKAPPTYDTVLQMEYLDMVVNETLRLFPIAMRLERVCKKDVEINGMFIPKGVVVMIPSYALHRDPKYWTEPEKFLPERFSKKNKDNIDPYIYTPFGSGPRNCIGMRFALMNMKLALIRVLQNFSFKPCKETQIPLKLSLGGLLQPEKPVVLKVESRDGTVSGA
Chain of CYP2E1 (P05181 whole entry): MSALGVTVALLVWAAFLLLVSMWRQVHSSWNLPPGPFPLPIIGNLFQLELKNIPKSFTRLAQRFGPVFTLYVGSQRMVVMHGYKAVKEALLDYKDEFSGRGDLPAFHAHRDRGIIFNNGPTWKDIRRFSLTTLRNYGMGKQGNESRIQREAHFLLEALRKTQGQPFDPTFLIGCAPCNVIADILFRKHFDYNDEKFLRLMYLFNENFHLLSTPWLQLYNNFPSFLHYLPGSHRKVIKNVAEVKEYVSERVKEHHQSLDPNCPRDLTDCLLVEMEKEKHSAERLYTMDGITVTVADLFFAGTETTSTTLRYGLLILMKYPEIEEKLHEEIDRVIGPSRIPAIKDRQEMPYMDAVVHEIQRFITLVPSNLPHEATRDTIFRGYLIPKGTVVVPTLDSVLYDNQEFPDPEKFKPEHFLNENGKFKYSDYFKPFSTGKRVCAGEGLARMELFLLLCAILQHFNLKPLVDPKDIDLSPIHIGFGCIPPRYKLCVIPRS
Chain of CYP2D6 (P10635 whole entry): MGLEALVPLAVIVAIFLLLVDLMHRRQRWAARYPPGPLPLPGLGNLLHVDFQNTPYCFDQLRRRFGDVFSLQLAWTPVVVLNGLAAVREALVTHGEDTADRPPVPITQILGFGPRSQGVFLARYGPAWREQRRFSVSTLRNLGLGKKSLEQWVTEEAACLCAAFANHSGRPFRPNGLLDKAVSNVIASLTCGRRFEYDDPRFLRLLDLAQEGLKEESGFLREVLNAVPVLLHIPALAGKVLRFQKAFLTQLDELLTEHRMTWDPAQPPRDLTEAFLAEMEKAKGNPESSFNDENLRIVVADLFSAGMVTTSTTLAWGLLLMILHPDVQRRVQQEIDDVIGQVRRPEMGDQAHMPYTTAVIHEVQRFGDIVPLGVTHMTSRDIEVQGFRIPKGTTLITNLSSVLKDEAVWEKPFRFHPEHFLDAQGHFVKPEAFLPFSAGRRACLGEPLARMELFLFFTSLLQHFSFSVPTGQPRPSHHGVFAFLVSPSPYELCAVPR

In general, inhibition refers to the change of the read-out against control, counted positive when it falls. What is called IC50 is the concentration needed to halve the response being measured. Higher therefore signals weaker potency. In the case of `O=C(O)c1cccc(CNC(=O)c2ccc(-n3ccnc3)cc2)c1`, the inhibition at 0.1 µM at Cytochrome P450 4Z1 [1] is 36%. The inhibition at 1 µM at Cytochrome P450 4Z1 [2] is 82%; against CYP1A2, 2.7%; against CYP2C9, -0.2%; against CYP2C19, 1.4%; at CYP2D6, -5.8%; at CYP2E1, 54%. For the same molecule, at CYP3A4, the inhibition at 1 µM came out at 12%. On Cytochrome P450 4Z1 [3], this molecule had a 50% inhibitory concentration (IC50) of 0.063 µM.

Take `O=C(O)CCC1CCCN(C(=O)c2ccc(Cn3ccnc3)cc2)C1` (stereo unspecified): the inhibition at 0.1 µM against Cytochrome P450 4Z1 [1] turned out to be 1%. Moreover, the inhibition at 1 µM against Cytochrome P450 4Z1 [2] worked out at 12%.

`Cn1cnc2cc(C(=O)Nc3ccc(Oc4nn[nH]n4)cc3)ccc21`: the inhibition at 0.1 µM on Cytochrome P450 4Z1 [1] came out at 5%. Further, the inhibition at 1 µM at Cytochrome P450 4Z1 [2] worked out at 10%.

`c1ccc(Cn2ccnc2)cc1`: the inhibition at 0.1 µM against Cytochrome P450 4Z1 [1] is 9%. For the same molecule, on Cytochrome P450 4Z1 [2], the inhibition at 1 µM was found to be 0%. Further, the concentration for half-maximal inhibition (IC50) on Cytochrome P450 4Z1 [3] was 6.7 µM; against Cytochrome P450 4Z1 [4], 5.9 µM.

As for `O=C(O)/C=C/c1ccc(Cn2ccnc2)cc1` [OZAGREL], the inhibition at 0.1 µM at Cytochrome P450 4Z1 [1] was determined as 21%. Further, the inhibition at 1 µM on Cytochrome P450 4Z1 [2] came to 24%.

For the molecule `CC1CCN(C(=O)c2cccc(OCC(=O)O)c2)CC1n1ccnc1` (stereo unspecified), at Cytochrome P450 4Z1 [1], the inhibition at 0.1 µM came out at 13%. In addition, the inhibition at 1 µM on Cytochrome P450 4Z1 [2] was 22%.

The values are drawn from ChEMBL document CHEMBL4732227, “Discovery of a novel potent cytochrome P450 CYP4Z1 inhibitor” (Eur J Med Chem, 2021).
